Experimental data from ChEMBL document CHEMBL1136085, “Structure-activity study of novel tricyclic benzazepine arginine vasopressin antagonists” (Bioorg Med Chem Lett, 2003).
pIC50: −log10 of the molar value.

Key:
Vasopressin V2 receptor = Vasopressin V2 receptor (Rattus norvegicus, UniProt Q00788); assay: Inhibition of [3H]AVP binding to Dawley rat kidney medullary vasopressin V2 receptor.
Vasopressin V1a receptor [1] = biological target: T1, Vasopressin V1a receptor (Rattus norvegicus, UniProt P30560); assay: Inhibition of [3H]AVP binding to Dawley rat hepatic vasopressin V1a receptor.
[2] = biological target: Vasopressin V2 receptor (Rattus norvegicus) (UniProt Q00788); assay: Compound was tested for the inhibition of [3H]AVP binding to Dawley rat kidney medullary Vasopressin V2 receptor; conditions: concentration not given here
Vasopressin V1a receptor [3] = biological target: T1, Vasopressin V1a receptor; assay: Compound was tested for the inhibition of [3H]AVP binding to Dawley […]
[4] = biological target: Vasopressin V1a receptor (Rattus norvegicus) (UniProt P30560); assay: Compound was tested for the inhibition of [3H]AVP binding to Dawley rat hepatic Vasopressin V1a receptor; conditions: concentration not given here
Rattus norvegicus [5] = assay: Aquaretic effect was measured by the amount of urine collected after 4 hr at a dose of 30 mg/kg ip in 6 Dawley rats; type: functional; conditions: route intraperitoneal
Rattus norvegicus [6] = assay: Aquaretic effect was measured by the amount of urine collected after 4 hr at a dose of 10 mg/kg ip in 2 Dawley rats; type: functional; conditions: route intraperitoneal

T1 sequence (P30560 whole entry): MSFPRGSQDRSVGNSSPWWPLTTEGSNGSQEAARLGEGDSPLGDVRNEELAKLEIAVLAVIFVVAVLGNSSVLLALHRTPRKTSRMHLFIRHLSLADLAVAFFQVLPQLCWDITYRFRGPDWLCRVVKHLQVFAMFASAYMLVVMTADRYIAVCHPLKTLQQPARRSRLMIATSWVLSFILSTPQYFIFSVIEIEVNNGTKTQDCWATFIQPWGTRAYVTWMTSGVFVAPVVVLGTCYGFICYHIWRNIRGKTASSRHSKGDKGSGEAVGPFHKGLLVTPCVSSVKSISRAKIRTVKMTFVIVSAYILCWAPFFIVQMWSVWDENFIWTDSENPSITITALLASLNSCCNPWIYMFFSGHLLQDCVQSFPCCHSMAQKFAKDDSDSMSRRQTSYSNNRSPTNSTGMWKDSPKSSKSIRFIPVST
Chain of Vasopressin V2 receptor (Q00788 whole entry): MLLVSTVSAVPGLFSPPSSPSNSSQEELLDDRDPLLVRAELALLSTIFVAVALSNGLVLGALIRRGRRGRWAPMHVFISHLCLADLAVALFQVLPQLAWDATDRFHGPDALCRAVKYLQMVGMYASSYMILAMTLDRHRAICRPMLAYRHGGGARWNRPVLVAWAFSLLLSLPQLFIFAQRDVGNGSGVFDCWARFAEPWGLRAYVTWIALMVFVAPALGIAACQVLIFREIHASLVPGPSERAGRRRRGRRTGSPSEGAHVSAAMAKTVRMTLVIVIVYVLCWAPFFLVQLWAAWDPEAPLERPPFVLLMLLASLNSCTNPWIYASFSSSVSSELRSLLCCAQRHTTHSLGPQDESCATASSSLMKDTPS
Chain of Vasopressin V1a receptor (Rattus norvegicus) (P30560 whole entry, looked up): as the sequence (P30560 whole entry) above
Chain of Vasopressin V2 receptor (Rattus norvegicus) (Q00788 whole entry): as the sequence (Q00788 whole entry) above

Row | pIC50 (Vasopressin V2 receptor) | pIC50 (Vasopressin V1a receptor [1]) | Structure (SMILES) | other results
1 | 6.27 | – | O=C(Nc1ccc(C(=O)N2Cc3cccn3Cc3ccccc32)cc1)c1ccccc1O | –
2 | 8.15 | 8.70 | O=C(Nc1ccc(C(=O)N2Cc3cccn3Cc3ccccc32)cc1)c1ccccc1Br | –
3 | 8.82 | – | Cc1ccc(F)cc1C(=O)Nc1ccc(C(=O)N2Cc3cccn3Cc3ccccc32)cc1 | Urine volume (Rattus norvegicus [6]): 21.8 ml 4hr-1
4 | 7.89 | 6.62 | Cc1cccc(C(=O)Nc2ccc(C(=O)N3Cc4cccn4Cc4ccccc43)cc2)c1C | –

The next lines start with the molecule.

Row | Structure (SMILES) | pIC50 (Vasopressin V2 receptor) | pIC50 (Vasopressin V1a receptor [1]) | other results
5 | Cc1ccccc1C(=O)Nc1ccc(C(=O)N2Cc3ccccc3Oc3ccccc32)cc1 | 5.77 | 5.82 | –
6 | Cc1ccccc1C(=O)Nc1ccc(C(=O)N2Cc3ccccc3CCc3ccccc32)cc1 | 4.30 | – | inhibition [2]: 80%; pIC50 (Vasopressin V1a receptor [3]): 4.30; inhibition [4]: 60%
7 | Cc1ccccc1C(=O)Nc1ccc(C(=O)N2c3ccccc3CCc3ccccc32)cc1 | 6.07 | 5.60 | –
8 | O=C(Nc1ccc(C(=O)N2Cc3cccn3Cc3ccccc32)cc1)c1ccc(F)cc1Cl | 8.40 | 8.15 | –
9 | Cc1ccccc1C(=O)Nc1ccc(C(=O)N2Cc3ccccc3Nc3ccccc32)cc1 | – | – | Urine volume (Rattus norvegicus [5]): 7.4 ml 4hr-1
10 | Cc1ccc(F)cc1C(=O)Nc1ccc(C(=O)N2Cc3cccn3Cc3ccccc32)c(Cl)c1 [LIXIVAPTAN] | – | – | Urine volume (Rattus norvegicus [6]): 22 ml 4hr-1
11 | O=C(Nc1ccc(C(=O)N2Cc3cccn3Cc3ccccc32)cc1)c1ccccc1Cl | – | – | Urine volume (Rattus norvegicus [6]): 12.4 ml 4hr-1
